In patent publication US10723708B2, “Anti-HCMV compositions and methods” (FORGE Life Science, LLC, priority 2014, dated 2020):

Test system: human cytomegalovirus (HCMV)
Test: Antiviral activity against HCMV, virus yield/replication assay in MRC5 cells
Type: cell-based
Settings: Human betaherpesvirus 5; infected human MRC5 cells; virus yield in supernatant at 96 hours / four days, read by IE protein expression in fresh MRC5 cells
Experimental: Assessing Antiviral Activity Against Human Cytomegalovirus (HCMV)
To assess their antiviral activity, some compounds were tested against human cytomegalovirus (HCMV) in vitro. Human MRC5 cells were grown in Dulbecco's Modified Eagle Medium (DMEM) supplemented with 10% fetal bovine serum (FBS) and infected with an HCMV variant expressing GFP tagged pUL99 (the product of late viral UL99 gene) at a multiplicity of 1 infectious unit (IU) per cell. One hour later, medium of the cells was replaced with fresh medium containing the indicated compounds at 50, 25, 12.5, 6.25, 3.13, 1.56, 0.78, 0.39 μM or the carrier in which the compounds are dissolved (DMSO). Final concentration of DMSO was 0.5% in each treatment. Virus yield in the culture supernatant was determined at 96 hours after infection by infecting fresh MRC5 cells and assaying viral IE1 protein expression. Results were plotted using either Prism Software or CDD Vault (CDD Vault was developed by Collaborative Drug Discovery, Inc., 1633 Bayshore Hwy, Suite 342, Burlingame, Calif. 94010) in order to calculate IC50s.
Alternatively, antiviral efficacy of some compounds was assessed by inhibition of HCMV replication during in vitro replication assays. Briefly, confluent monolayers of MRC5 fibroblasts in a 96 well plate format (˜1.0×10^4 cells/well) were infected with an AD169 strain of HCMV for one hour. After the initial incubation hour, virus containing media was removed and 100 ul of media with sequential dilutions of FORGE compounds added to each well. The concentrations of the FORGE compounds were 50 μM, 25 μM, […], 6.25 μM, 3.125 μM, 1.56 μM, and 0.78125 μM as well as a vehicle control (0.5% DMSO). The concentration of DMSO was constant between all conditions. Assays were performed in duplicate. Infected plates were returned to the incubator and the viral infection was allowed to progress for four days. On the fourth day, 50 μL of cell free supernatant was collected from each well and used to infect a new 96 well plate seeded with a confluent monolayer of MRC5 fibroblasts along with 50 μL of media to bring the total volume to 100 μL. The next day the media was removed and the infected monolayer was fixed with cold methanol, and Immediate Early proteins were detected by immunofluorescence assays to quantify the number of cells that were infected with HCMV. IE gene expression was quantified within five random fields within each well and corresponding numbers were utilized to determine viral replication. Results from each well were normalized to the vehicle control well so as to allow a percent reduction from no drug treatment to be calculated. Results were plotted using either Prism Software or CDD Vault in order to calculate IC50s.

| SMILES | IC50 [µM] |
| --- | --- |
| COc1ccc(C(C)CCNc2cnc3ccccc3c2)cc1 (stereo not drawn) [Example 1] | 25 to 50 |
| COc1ccc(C(C)CC(=O)Nc2cnc3ccccc3c2)cc1 (stereo not drawn) [Example 2] | > 50 |
| COc1cccc(C(C)CCNc2cnc3ccccc3c2)c1 (stereo not drawn) [Example 3] | 25 to 50 |
| COc1cccc(C(C)CC(=O)Nc2cnc3ccccc3c2)c1 (stereo not drawn) [Example 4] | 21.2 ± 14.5 |
| CC(CCNc1cnc2ccccc2c1)c1ccccc1Cl (stereo not drawn) [Example 5] | 18.6 ± 4.62 |
| CC(CC(=O)Nc1cnc2ccccc2c1)c1ccccc1Cl (stereo not drawn) [Example 6] | 21.1 ± 14.5 |
| CC(CCNc1cnc2ccccc2c1)c1ccccc1 (stereo not drawn) [Example 7] | > 50 |
| CC(CC(=O)Nc1cnc2ccccc2c1)c1ccccc1 (stereo not drawn) [Example 8] | 3.03 ± 0.69 |
| COc1ccc(C(C)CCNc2ccc3ncccc3c2)cc1 (stereo not drawn) [Example 9] | 2.41 ± 0.04 |
| COc1ccc(C(C)CC(=O)Nc2ccc3ncccc3c2)cc1 (stereo not drawn) [Example 10] | 5.82 ± 1.98 |
| COc1cccc(C(C)CCNc2ccc3ncccc3c2)c1 (stereo not drawn) [Example 11] | 5.75 ± 2.47 |
| COc1cccc(C(C)CC(=O)Nc2ccc3ncccc3c2)c1 (stereo not drawn) [Example 12] | 3.34 ± 1.45 |
| COc1ccccc1C(C)CCNc1ccc2ncccc2c1 (stereo not drawn) [Example 13] | 23.4 ± 0.6 |
| COc1ccccc1C(C)CC(=O)Nc1ccc2ncccc2c1 (stereo not drawn) [Example 14] | 2.2 ± 1.32 |
| COc1ccc(C(C)CCNc2cccc3cccnc23)cc1 (stereo not drawn) [Example 15] | 3.27 ± 0.41 |
| COc1ccc(C(C)CC(=O)Nc2cccc3cccnc23)cc1 (stereo not drawn) [Example 16] | 26.9 ± 11.5 |
| COc1cccc(C(C)CCNc2cccc3cccnc23)c1 (stereo not drawn) [Example 17] | 2.69 ± 0.94 |
| COc1cccc(C(C)CC(=O)Nc2cccc3cccnc23)c1 (stereo not drawn) [Example 18] | > 50 |
| COc1ccccc1C(C)CCNc1cccc2cccnc12 (stereo not drawn) [Example 19] | 1.28 ± 0.16 |
| COc1ccccc1C(C)CC(=O)Nc1cccc2cccnc12 (stereo not drawn) [Example 20] | 19.7 ± 14.7 |
| CC(CCNc1cccc2cccnc12)c1ccccc1Cl (stereo not drawn) [Example 21] | 1.2 ± 0.52 |

| SMILES | IC50 [µM] |
| --- | --- |
| CC(CC(=O)Nc1cccc2cccnc12)c1ccccc1Cl (stereo not drawn) [Example 22] | 1.28 ± 1.82 |
| Cc1ccccc1C(C)CCNc1cccc2cccnc12 (stereo not drawn) [Example 23] | 2.01 ± 0.71 |
| Cc1ccccc1C(C)CC(=O)Nc1cccc2cccnc12 (stereo not drawn) [Example 24] | > 50 |
| COc1ccccc1C(C)C(F)CNc1cccc2cccnc12 (stereo not drawn) [Example 25] | 3.73 ± 0.46 |
| COc1ccccc1C(C)C(F)C(=O)Nc1cccc2cccnc12 (stereo not drawn) [Example 26] | 5.38 ± 3.93 |
| COc1ccccc1C(C)C(O)CNc1cccc2cccnc12 (stereo not drawn) [Example 27] | 28.5 ± 2.68 |
| COc1ccccc1C(C)C(C)CNc1cccc2cccnc12 (stereo not drawn) [Example 28] | 2.89 ± 0.95 |
| COc1ccccc1C(C)C(C)C(=O)Nc1cccc2cccnc12 (stereo not drawn) [Example 29] | 11.5 ± 7.71 |
| COc1ccccc1CCCNc1cccc2cccnc12 [Example 30] | 12.1 ± 8.44 |
| COc1ccccc1CCC(=O)Nc1cccc2cccnc12 [Example 31] | > 50 |
| CCC(CCNc1cccc2cccnc12)c1ccccc1OC (stereo not drawn) [Example 32] | 2.25 ± 0.33 |
| CCC(CC(=O)Nc1cccc2cccnc12)c1ccccc1OC (stereo not drawn) [Example 33] | 5.3 ± 0.31 |
| CC(CCNc1cccc2cccnc12)c1ccccn1 (stereo not drawn) [Example 34] | > 50 |
| CC(CC(=O)Nc1cccc2cccnc12)c1ccccn1 (stereo not drawn) [Example 35] | > 50 |
| COc1ccccc1C(C)CCn1ccc2ccccc21 (stereo not drawn) [Example 36] | > 50 |
| COc1ccccc1C(C)CC(=O)n1ccc2ccccc21 (stereo not drawn) [Example 37] | > 50 |
| COc1ccccc1C(C)CCNc1cccc2nccnc12 (stereo not drawn) [Example 38] | 3.61 ± 0.54 |
| COc1ccccc1C(C)CC(=O)Nc1cccc2nccnc12 (stereo not drawn) [Example 39] | > 50 |
| COc1ccccc1C(C)CCNc1cccc2ccccc12 (stereo not drawn) [Example 40] | 2.83 ± 0.28 |
| COc1ccccc1C(C)CC(=O)Nc1cccc2ccccc12 (stereo not drawn) [Example 41] | 29.2 ± 17.8 |
| COc1ccccc1C(C)CCNc1cccc2[nH]ccc12 (stereo not drawn) [Example 42] | 1.32 ± 0.84 |

| SMILES | IC50 [µM] |
| --- | --- |
| COc1ccccc1C(C)CC(=O)Nc1cccc2[nH]ccc12 (stereo not drawn) [Example 43] | 12.5 ± 4.14 |
| COc1ccccc1C(C)CCNc1ccccc1 (stereo not drawn) [Example 44] | > 50 |
| COc1ccccc1C(C)CC(=O)Nc1ccccc1 (stereo not drawn) [Example 45] | > 50 |
| COc1ccc(Br)cc1C(C)CCNc1cccc2cccnc12 (stereo not drawn) [Example 46] | 21.7 ± 2.48 |
| COc1ccc(Br)cc1C(C)CC(=O)Nc1cccc2cccnc12 (stereo not drawn) [Example 47] | 5.88 ± 1.93 |
| CC(CCNc1cccc2cccnc12)c1ccccc1 (stereo not drawn) [Example 48] | > 50 |
| CC(CC(=O)Nc1cccc2cccnc12)c1ccccc1 (stereo not drawn) [Example 49] | > 50 |
| CC(CCNc1cccc2cccnc12)c1ccccc1Br (stereo not drawn) [Example 50] | 2.92 ± 1.26 |
| CC(CCNc1cccc2cccnc12)c1c(Cl)cccc1Cl (stereo not drawn) [Example 51] | 1.94 ± 0.51 |
| CC(CCOc1cccc2cccnc12)c1ccccc1Cl (stereo not drawn) [Example 52] | 1.98 ± 0.68 |
| CC(CCNc1ccc(Br)c2cccnc12)c1ccccc1 (stereo not drawn) [Example 53] | 11.6 ± 0.36 |
| CC(CNc1cccc2nccnc12)C(C)c1ccc(Cl)cc1Cl (stereo not drawn) [Example DV7016] | 23.1 |
| CC(CNc1cccc2nccnc12)C(C)c1cc(Cl)ccc1Cl (stereo not drawn) [Example FLS-114] | 6.4 |
| CC(CNc1cccc2[nH]ccc12)C(C)c1ccccc1Cl (stereo not drawn) [Example FLS-116] | 3.5 |
| CC(CNc1cccc2nccnc12)c1ccccc1Cl (stereo not drawn) [Example FLS-117] | 3.2 |
| CC(CNc1cccc2nccnc12)c1cc(Cl)ccc1Cl (stereo not drawn) [Example FLS-118] | 3.2 |
| CC(CNc1cccc2nccnc12)c1cc(Cl)cc(Cl)c1 (stereo not drawn) [Example FLS-119] | 2.7 |
| CC(CNc1cccc2[nH]ccc12)c1ccccc1Cl (stereo not drawn) [Example FLS-120] | 5 |
| CC(CCNc1ccc(Br)c2cccnc12)c1ccccc1Cl (stereo not drawn) [FH000006-K-6] | 7.9 |
| CC(CCC(=O)Nc1cccc2cccnc12)c1ccccc1Cl (stereo not drawn) [FH000006-K-8-A] | 4.5 |
| CC(CCCNc1cccc2cccnc12)c1ccccc1Cl (stereo not drawn) [FH000006-K-8] | 6.3 |
